Experimental data: patent US11389423B2, “Pharmaceutical composition, excipient for the composition and use of the composition” (priority 2018, dated 2022)

Experiments:
rats (male and female) = test: Single dose (acute) toxicity study in rats; type: in vivo
Procedure: The single-dose (acute) toxicity study was carried out with different groups of rats and mice (male and female) and according to the procedures recommended by OECD (2001) and ANVISA (2013).
After a 6 h-fasting period, the animals' body weight was determined, and the dose of the synthetic CBD was calculated. Two single doses (1000 and 2000 mg/kg) of synthetic CBD were administered orally (with the aid of a gavage probe) and intraperitoneally in different groups of rats and mice (male and female). Other different groups of rodents were treated with placebo and were considered as control groups.
The animals were carefully observed for any toxicity signs within the first eight hours after treatment, and daily for a period of 14 days. On the 15th day all animals were euthanized, and the respective anatomopathological investigations were performed on the 15th day after the treatments.

[1] = test system: polychromatic erythrocytes; settings: rats male and female, 500, 1000 and 2000 mg/kg orally
Procedure: To perform the micronucleus test (Schmid, 1976), different groups of rats (male and female; n=10) received three doses of CBD (500, 1000 and 2000 mg/kg) orally. The negative control group received placebo by gavage and the positive control was treated with cyclophosphamide monohydrate (20 mg/kg—Sigma-Aldrich) intraperitoneally. After 24 hours (cyclophosphamide) and 48 hours (CBD-SINT and vehicle) the end of treatments, the animals were euthanized by decapitation. The femurs were removed, the proximal epiphysis was removed to expose the medullary canal and, with the aid of a 13×4.5 mm needle and 3 mL NaCl solution (150 mM), the marrow was removed, washing the medullary canal with NaCl solution. The material was transferred to glass tubes and centrifuged at 1000 rpm/5 min. After centrifugation, the supernatant was discarded, and the deposit was resuspended with a 4% formaldehyde solution and slightly homogenized with the aid of a Pasteur pipette. A drop of this cell suspension was placed on a clean, dry slide, and then the smear was performed. The slides were dried at room temperature and, after 24 hours, stained with Leishman eosin-methylene blue and subjected to microscopic analysis. To determine the number of micronuclei, 2000 polychromatic erythrocytes were counted per animal (1000 in each slide) using an optical microscope, at 400× magnification. The analysis of the slides was blind and performed by a single evaluator.

[2] = test system: rats with MPTP microinfusion into the substantia nigra; test: Morris water maze (cued test/memory version), MPTP model; type: in vivo; settings: 36 and 120 mg/kg orally, day 1 to day 10 after MPTP
Procedure: For the experiments with MPTP (neuroprotection), the animals were divided into the following experimental groups: • MPTP+placebo • MPTP+CBD-SINT 12 mg/kg • MPTP+CBD-SINT 36 mg/kg • MPTP+CBD-SINT 120 mg/kg • Sham+placebo • Naive
CBD-SINT and placebo were administered orally (gavage) for 18 days prior to the administration of the neurotoxin by stereotactic surgery, and for another 10 days after surgery. After the administration of the neurotoxin, the behavioral (locomotor activity) and biochemical (brain dopamine dosage) parameters were evaluated after 24 hours and after 10 days. The memory tests (Morris water maze) were performed daily from day 1 to day 10 after the administration of the neurotoxin (FIG. 13).
The rats were submitted to stereotactic surgery (stereotactic—David Kopf, model 957L) and received bilateral microinfusion of MPTP or 6-OHDA (different groups of rats) directly into the substantia nigra. For surgery, the following stereotaxic coordinates were used: anteroposterior: 5.0 mm from the bregma; mediolateral: ±2.1 mm from the midline and dorsoventral: −7.7 mm from the cranial vault (Paxinos and Watson, 1986). Then, 100 μg MPTP (diluted in 1 μL saline, with a flow of 0.33 μL/min) or 8 μg 6-OHDA (diluted in 2 μL saline with 0.2 μg/μL ascorbic acid, with a flow rate of 0.33 μL/min) were injected. […]

[3] = 1000 mg/kg and 2000 mg/kg intraperitoneally, single dose

C=C(C)[C@@H]1CCC(C)=C[C@H]1c1c(O)cc(CCCCC)cc1O [CBD-SINT, Cannabidiol]
abdominal contortions during the first 8 hours (rats (male and female); [3]): occasional abdominal contortions | activity during the first 8 hours of observation (rats (male and female); [3]): significant decrease in its activity | daily feed and water consumption compared to placebo (rats (male and female); 1000 and 2000 mg/kg, oral or intraperitoneal): no change | final body weight and body weight gains vs placebo (rats (male and female); 1000 and 2000 mg/kg, oral or intraperitoneal, 14 days): similar | appearance and general behavior pattern until the end of the 14-days observation (rats (male and female); 1000 and 2000 mg/kg, oral or intraperitoneal, after the first 8 h): no significant changes | absolute (g) or relative (%) weight of all organs vs placebo (rats (male and female); after 14 days): no significant differences | histopathological analyzes (rats (male and female); day 15): no significant changes | macroscopic examination of vital organs (rats (male and female); day 15): did not disclose any abnormalities | deaths (LD50 not set forth) (rats (male and female); doses up to 2000 mg/kg orally or intraperitoneally, 14 days): no deaths were observed | ratio of polychromatic/normochromatic erythrocytes (PCE/NCE ratio) vs placebo [1]: did not cause any significant change | MNPCE number vs placebo (C-) ([1]; 48 hours): in a similar way to that found for animals treated only with placebo | latency time to find the platform (memory deficit) [2]: prevented this deficit
